From patent US10544099B2, “Inhibitors of indoleamine 2,3-dioxygenase and methods of their use” (BRISTOL-MYERS SQUIBB COMPANY, priority 2016, dated 2020)

Target: T1, human IDO1 (Homo sapiens, UniProt P14902)
T1 construct: expressed in transfected cells
Experiment: HEK Human IDO-1 cell-based IDO inhibition assay
Settings: human IDO1/HEK293 cells, 20 hours incubation, kynurenine absorbance at 490 nm; read-out: HEK Human IDO-1 Bio Activity
Protocol: HEK293 cells were transfected with a pCDNA-based mammalian expression vector harboring human IDO1 cDNA (NM 002164.2) by electroporation. They were cultured in medium (DMEM with 10% FBS) containing 1 mg/ml G418 for two weeks. Clones of HEK293 cells that stably expressed human IDO1 protein were selected and expanded for IDO inhibition assay.
The human IDO1/HEK293 cells were seeded at 10,000 cells per 50 μL per well with RPMI/phenol red free media contains 10% FBS in a 384-well black wall clear bottom tissue culture plate (Matrix Technologies LLC) 100 nL of certain concentration of compound was then added to each well using ECHO liquid handling systems. The cells were incubated for 20 hours in 37° C. incubator with 5% CO2.
The compound treatments were stopped by adding trichloroacetic acid (Sigma-Aldrich) to a final concentration at 0.2%. The cell plate was further incubated at 50° C. for 30 minute. The equal volume supernatant (20 μL) and 0.2% (w/v) Ehrlich reagent (4-dimethylaminobenzaldehyde, Sigma-Aldrich) in glacial acetic acid were mixed in a new clear bottom 384-well plate. This plate was then incubated at room temperature for 30 minute. The absorbance at 490 nm was measured on Envision plate reader.
Compound IC50 values were calculated using the counts of 500 nM of a reference standard treatment as one hundred percent inhibition, and counts of no compound but DMSO treatment as zero percent inhibition.

T1 sequence (P14902 whole entry): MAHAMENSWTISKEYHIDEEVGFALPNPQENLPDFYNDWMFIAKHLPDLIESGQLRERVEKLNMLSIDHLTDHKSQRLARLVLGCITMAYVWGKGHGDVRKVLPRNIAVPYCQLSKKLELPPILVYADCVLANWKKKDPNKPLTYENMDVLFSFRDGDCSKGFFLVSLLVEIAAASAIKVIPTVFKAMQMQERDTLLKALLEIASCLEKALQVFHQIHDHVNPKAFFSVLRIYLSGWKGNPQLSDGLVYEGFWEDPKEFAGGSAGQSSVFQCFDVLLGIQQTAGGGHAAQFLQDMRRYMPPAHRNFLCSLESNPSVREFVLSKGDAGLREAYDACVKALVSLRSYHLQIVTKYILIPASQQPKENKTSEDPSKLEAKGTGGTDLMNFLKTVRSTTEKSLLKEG

| Structure (SMILES) | IC50 |
| --- | --- |
| CC[C@@H](NC(=O)Nc1ccc(Cl)cc1)[C@H]1CC[C@H](Oc2ccnc3ccccc23)CC1 (racemic) [Example 3, (±)-1-(4-chlorophenyl)-3-((R)-1-((trans)-4-(quinolin-4-yloxy)cyclohexyl)propyl)urea] | < 50 nM |
| COc1ccc(OC(=O)N[C@H](C)[C@H]2CC[C@@H](c3ccnc4ccc(F)cc43)CC2)cc1 [Example 11, 4-methoxyphenyl (R)-1-((1s,4S)-4-(6-fluoroquinolin-4-yl)cyclohexyl)ethylcarbamate] | < 50 nM |
| Cc1ccc(NC(=O)N[C@H](C)[C@H]2CC[C@@H](c3ccnc4ccc(F)cc43)CC2)cc1Cl [Example 7, 1-(3-chloro-4-methylphenyl)-3-((R)-1-((1s,4S)-4-(6-fluoroquinolin-4-yl)cyclohexyl)ethyl)urea] | < 50 nM |
| C[C@@H](NC(=O)Oc1ccc(F)cc1)[C@H]1CC[C@@H](c2ccnc3ccc(F)cc32)CC1 [Example 10, 4-fluorophenyl (R)-1-((1s,4S)-4-(6-fluoroquinolin-4-yl)cyclohexyl)ethylcarbamate] | < 250 nM |
| Cc1ccc(NC(=O)N[C@H](C)[C@H]2CC[C@@H](c3ccnc4ccc(F)cc43)CC2)cc1 [Example 4, 1-((R)-1-((1s,4s)-4-(6-Fluoroquinolin-4-yl)cyclohexyl)ethyl)-3-p-tolylurea] | < 50 nM |
| C[C@@H](NC(=O)Nc1ccc(Cl)cc1)[C@H]1CC[C@@H](c2ccnc3ccc(F)cc32)CC1 [Example 5, 1-(4-chlorophenyl)-3-((R)-1-((1s,4S)-4-(6-fluoroquinolin-4-yl)cyclohexyl)ethyl)urea] | < 50 nM |
| Cc1ccc(OC(=O)N[C@H](C)[C@H]2CC[C@@H](c3ccnc4ccc(F)cc43)CC2)cc1 [Example 9] | < 250 nM |

The remaining lines, values ahead:

| IC50 | Structure (SMILES) |
| --- | --- |
| < 2000 nM | O=C(Nc1ccc(Cl)cc1)NC1CC12CCC(c1ccnc3ccc(F)cc13)CC2 (racemic) [Example 2, (±)-1-(4-chlorophenyl)-3-(6-(6-fluoroquinolin-4-yl)spiro [2.5]octan-1-yl)urea] |
| < 50 nM | C[C@@H](NC(=O)Nc1ccc(F)cc1)[C@H]1CC[C@@H](c2ccnc3ccc(F)cc32)CC1 [Example 8, 1-(4-fluorophenyl)-3-((R)-1-((1s,4S)-4-(6-fluoroquinolin-4-yl)cyclohexyl)ethyl)urea] |
| < 2000 nM | CC(NC(=O)Nc1ccc(Cl)cc1)C1CCN(c2ccnc3ccc(F)cc23)CC1 (racemic) [Example 1, (±)-1-(4-Chlorophenyl)-3-(1-(1-(6-fluoroquinolin-4-yl)piperidin-4-yl)ethyl)urea] |
| < 50 nM | CCOc1ccc(NC(=O)N[C@H](C)[C@H]2CC[C@@H](c3ccnc4ccc(F)cc43)CC2)cc1 [Example 6, 1-(4-ethoxyphenyl)-3-((R)-1-((1s,4S)-4-(6-fluoroquinolin-4-yl)cyclohexyl)ethyl)urea] |
